Laboratory results as given in US12391643B2, “Substituted amino-thiol and amino-disulfide compounds, and uses thereof” (The Regents of the University of California, priority 2019, dated 2025).

Legend:
[1] = tested on: Pooled human hepatocytes; assay: Hepatocyte elimination (in vitro metabolic stability, percent parent remaining by LC/MS/MS); assay type: in vitro ADME; details: compared with other forms
Excerpt: In vitro experiments with isotopically enriched cystamine and cysteamine in hepatocytes.
The assessment of in vitro metabolic stability provides a means to measure the susceptibility of a test compound to biotransformation by the liver. While liver microsomes primarily assess cytochrome P450 system-mediated metabolism (phase I metabolism), hepatocytes represent a complete, undisrupted metabolic system, including cofactors, and thus assess both phase I and phase II metabolism. In all cases, the metabolic stability of test compounds was determined by monitoring, via LC/MS/MS, the percent parent compound remaining versus time of incubation in human hepatocytes.
Pooled human hepatocytes (catalog number HMCS10, ThermoFischer Scientific) were thawed according to the manufacturers instructions. Thawed hepatocytes were washed by centrifugation and replated in Williams' Medium E supplemented with Heptocyte Plating Supplement Pack, Serum-containing.
Cells were diluted to 1,000,000 per ml in maintenance media (Williams' E Media supplemented with Hepatocyte Maintenance Supplement Pack, Serum-free). 500 μl of cell suspension was added to each well of a microtiter plate containing 500 μl of the deuterated test agent and placed on an orbital shaker at 120 rpm at 37 C. At the appropriate time point 50 μl aliquots were removed from the well and added to 50 μl of ice cold ethyl acetate and vortexed for 5 min and froze until chromatography analysis.

[2] = tested on: C57BL/6 male mice on CDAHFD diet; assay: In vivo NASH model, treatment phase (8 weeks CDAHFD, then 2 weeks daily gavage); details: for Fatty deposits / fat globules in liver, H&E staining: 200 mg/kg/day
Experimental: Liver Inflammatory Cells. CD11b stains macrophages and microglia. CD11b staining of liver tissue was taken after 10 weeks of CDAHFD in three groups of mice. […] At 8 weeks, treatment group 2 (“C2”) mice started gavage feeding with D2-Cystamine at 200 mg/kg/day once daily gavage, and treatment group 3 (“C3”) mice received D4-Cystamine at 200 mg/kg/day by once daily gavage.
(§1) In vivo NASH Models. NASH models from normal C57BL/6 male mice on CDAHFD diet (choline deficient, L-amino acid defined, high fat diet with restricted amount of methionine) were used. Two deuterated cystamine molecules were tested:
(§2) Two phase study was performed: (1) A prevention and (2) a treatment phase. 48 Mice were separated into nine groups of mice as described below. Histology at end of each study was performed looking for specific features of NASH (steatohepatitis, ballooning, fibrosis). The primary endpoint was plasma ALT measurement. Gene expression studies for fibrosis, inflammation were also performed.
(§3) Prevention Phase. Group 1: Control mice on CDAHFD for 8 weeks. Blood drawn at 0, 4, and 8 weeks. Group 2: Mice on CDAHFD plus D2 at 200 mg/kg/day for 8 weeks. Blood drawn at 0, 4, and 8 weeks. Group 3: Mice on CDAHFD plus D4 at 200 mg/kg/day for 8 weeks. Blood drawn at 0, 4, and 8 weeks. Group 4: Control mice (n=4) continue on CDAHFD for 2 weeks. Blood at baseline and at 2 weeks. Liver histology at 2 weeks. Group 5: Mice (n=4) on CDAHFD for 2 weeks plus D2 at 200 mg/kg/day administered via daily gavage. Blood at 0 and 2 weeks and histology at 2 weeks. Group 6: Mice (n=4) on CDAHFD for 2 weeks plus D4 at 200 mg/kg/day administered via daily gavage. Blood at 0 and 2 weeks and histology at 2 weeks.
Treatment Study Results. Groups 4, 5 and 6 mice received 8 weeks of CDAHDF diet before beginning treatment with deuterated compounds of the disclosure. During the treatment phase the mice continued to receive CDAHDF diet. Four mice were set in each group: control (C1) not receiving any drug; treatment (C2) receiving 200 mg/kg of cystamine D2 by once daily gavage; and treatment (C3) receiving 200 mg/kg cystamine D4 by once daily gavage.

[3] = tested on: C57BL/6 male mice on CDAHFD diet; assay: In vivo NASH model, prevention phase (drug in drinking water, 8 weeks); details: about 200 mg/kg/day in drinking water, n=8 per group
Experimental: as §1, §2
Drug (D2 or D4) was administered in drinking water at a concentration to deliver animals about 200 mg/kg/day of drug. Daily weight. Volume of fluid drunk/day was also measured.
as §3, with “Group 6: Mice (n=4) on CDAHFD for 2 weeks plus D4 at 200 mg/kg/day administered via daily gavage. Blood at 0 and 2 weeks and histology at 2 weeks.” left out

[4] = tested on: cystinotic fibroblasts; assay: Cystine re-accumulation after washout in cystinotic fibroblasts; assay type: cell-based, human; details: 100 uM for 3 h, then drug-free media up to 17 h; vs cystamine
Experimental: In vitro experiments with isotopically enriched cystamine in cystinotic fibroblasts. Fibroblasts from a de-identified cystinotic patient were split 3× from 2 plates into 36 plates. Three different drugs were used for the experiments: cystamine (non-labeled), d2-cystamine, and d4-cystamine. There were two time series for each drug. The first was with constant drug incubation and included: 0, 10 min, 30 min, 1 h, 3 h, and 5 h. The other series included a washout after 3 h drug incubation, using fresh media following a PBS wash, and included the timepoints: 0, 30 min, 1 h, 3 h, 5 h, and 17 h. A direct quench and extraction technique were used for harvesting all cells to minimize further oxidation and metabolism. This included 2× washes with PBS that included 5 mM N-ethylmaleimide for trapping free thiol groups, and then scraping the plates with an acidified organic solvent extraction solution containing both d4-cystine and d4-cysteamine (plus d-8 cystamine) as internal standards. All samples were run on an API 4500 triple quadrupole LC-MS/MS, with selective reaction monitoring (SRM/MRM) for the following compounds of interest: cystine, NEM-cysteamine, NEM-cysteine, cystamine, and 2-(methylthio)ethylamine. All data fit well to single exponential curves (either decay or association), except where mentioned.
Cystine measurement after washout: Fibroblast cultures were exposed to 100 uM cystamine/d2-cystamine/d4-cystamine for 3 h. Following incubation, cells were washed with PBS, and then incubated with regular media (containing FBS) for the following timepoints: 0 min, 30 min, 1 h, 3 h, 5 h, and 17 h. Cells were harvested identically as described previously.
Fibroblasts from a de-identified cystinotic patient were split 3× from 2 plates into 18 plates. Two different drugs were used for the experiments: D4n-cystamine, and D8-cystamine. There were two time series for each drug. The first was with constant drug incubation and included: 0, 15 min, 30 min, 1 hr, and 3 hr. The other series included a washout after 3 hours of drug incubation, using fresh media following a PBS wash, and included the time-points: 0, 1 hr, 3 hr, and 16 hr. A direct quench and extraction technique was used for harvesting all cells to minimize further oxidation and metabolism. […] All samples were run on an API 4500 triple quadruple LC-MS/MS, with selective reaction monitoring (SRM/MRM) for the following compounds of interest: cystine, NEM-cysteamine, NEM-cysteine, and cystamine. All data fit well to single exponential curves (either decay or association), except where mentioned.
Fibroblast cultures were exposed to 50 μM cystamine (D8 or D4n) for 3 hours. Following incubation, cells were washed with PBS and then incubated with regular mediate containing FBS for 1 h, 3 h, and 16 h. Cells were harvested as above. […] Cystine reaccumulation between D4n-cystamine and D8-cystamine are very similar, indicating similar levels of drug remaining during the washout timepoints (FIG. 15).

[5] = 200 mg/kg once daily gavage, 2 weeks

SMILES: [2H]C([2H])(CN)SSC([2H])([2H])CN [D4-Cystamine, 2,2′-disulfanediylbis(ethan-2,2-d2-1-aminium) chloride]
- Rate of hepatocyte elimination / stability, comparison in words [1]: most stable of the dimeric compounds
- Rate of hepatocyte elimination / stability, comparison in words ([1]; listed as D4 cystamine): slower rate than D2 or non-deuterated cystamine
- ALT versus untreated control group [2, 5]: significantly lower
- Ratio of body weight to liver weight (BW/LW) at end of study versus control [2, 5]: statistically significant
- Hepatic fibrosis, Sirius Red staining of liver sections ([2]; 200 mg/kg once daily gavage, 2 weeks, listed as D4): significant reduction in the amount of positive liver staining
- Hepatic fibrosis, Sirius Red staining of liver sections ([2]; 200 mg/kg once daily gavage, 2 weeks, listed as cystamine D4): very significant reduction in hepatic fibrosis
- Number of CD11b positive cells in liver tissue versus control group ([2]; 200 mg/kg/day once daily gavage, 2 weeks): statistically significant reduction
- Fatty deposits / fat globules in liver, H&E staining ([2]; 2 weeks): reduction in fatty globules
- Fatty deposits / fat globules in liver, H&E staining ([2]; 2 weeks, listed as D4): reduced fatty deposits compared to control
- Pericentral fibrosis in liver ([2]; Sirius Red staining, 2 weeks): less pericentral fibrosis
- Collagen 1 expression, qPCR, versus control ([2]; liver, 2 weeks of treatment): significant reduction
- ALT levels at 8 weeks versus control group [3]: not between the control group and D4
- Cystine re-accumulation after washout, comparison in words [4]: very similar
